From patent US8575091B1, “Amylin analogues and pharmaceutical compositions thereof” (Novo Nordisk A/S, priority 2012, dated 2013)
Numbered stars: 1 amine (or outer) side, 2 acyl side, 3 side chain; on linkers, the order of the positions; unused ones are H or OH. Bridge positions count the residues as written; N and C are the ends. Side chains are listed from the residue outwards. Peptide text beside a SMILES is read from it. * marks the point of attachment. C20 diacid = O=C(O)CCCCCCCCCCCCCCCCCCC(=O)*; γGlu = O=C(O)[C@H](CCC(=O)[*:2])N[*:1]; AEEA = NCCOCCOCC(=O)O

Experiments:
human amylin receptor = biological target: T1, human amylin receptor (Homo sapiens, UniProt O60896+P30988); assay: Assay (V) binding to the human amylin receptor (SPA, 125I-rat amylin)
T1 construct: expressed in transfected cells
T1 sequence (P30988 25-474): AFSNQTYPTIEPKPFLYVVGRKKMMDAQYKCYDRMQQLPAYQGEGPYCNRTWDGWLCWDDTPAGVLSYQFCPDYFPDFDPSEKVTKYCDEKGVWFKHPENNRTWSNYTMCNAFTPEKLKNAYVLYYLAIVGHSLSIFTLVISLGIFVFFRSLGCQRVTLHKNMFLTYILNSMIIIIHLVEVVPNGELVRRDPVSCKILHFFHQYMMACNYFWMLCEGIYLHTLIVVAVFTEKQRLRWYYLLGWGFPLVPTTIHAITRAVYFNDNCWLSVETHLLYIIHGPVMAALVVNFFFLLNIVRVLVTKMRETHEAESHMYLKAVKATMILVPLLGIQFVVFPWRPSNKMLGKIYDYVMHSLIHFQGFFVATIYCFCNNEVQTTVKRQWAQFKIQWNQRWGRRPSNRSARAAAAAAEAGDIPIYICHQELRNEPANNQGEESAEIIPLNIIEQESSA
T1 sequence (O60896 24-148 partner): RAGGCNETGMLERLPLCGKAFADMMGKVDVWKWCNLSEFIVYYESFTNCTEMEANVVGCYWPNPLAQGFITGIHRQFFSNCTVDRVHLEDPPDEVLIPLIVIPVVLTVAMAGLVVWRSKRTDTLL
Protocol: The binding assay was performed using scintillation proximity assay (SPA) beads (RPNQ0001) from PerkinElmer and cell membranes from the Amylin 3(a)/CRE-luc cells (as described in Assay (II)) were used. Membranes were prepared in the following way; the cells were rinsed with PBS and incubated with Versene for approximately 5 min before harvesting. The cells were flushed with PBS and the cell-suspension was centrifuged for 5 min at 1000 rpm. […] The resulting pellet was resuspended in buffer 2 and protein concentration was measured (BCA protein Assay, Pierce). The homogenate was kept cold during the whole procedure. The membranes were kept at −80° C. until use. The assay was performed in a 384 well Optiplate (PerkinElmer) in a total volume of 40 ul. Membranes were mixed with SPA beads. Final concentration of membranes 35 ng/μL final and SPA beads was 0.05 mg/well. Test-compounds were dissolved in DMSO and further diluted in assay buffer (50 mM Hepes, pH 7.4, 1 mM CaCl2, 5 mM MgCl2, 0.1% OA and 0.02% Tween20). […] Samples were analyzed on TopCounter™ (Packard). The IC50 was calculated using (one site binding competition analysis) GraphPad Prism5 as a measure of receptor affinity.

[1] = biological target: T2, human amylin receptor (amylin 3(a) receptor: human calcitonin receptor + RAMP-3) (Homo sapiens, UniProt O60896+P30988); assay: Assay (II)a functional assay, human amylin receptor (CRE luciferase, BHK cells); type: cell-based
T2 construct: expressed in transfected cells
T2 sequence (P30988 25-474): T1 sequence (P30988 25-474)
T2 sequence (O60896 24-148 partner): T1 sequence (O60896 24-148 partner)

[2] = Table 7b, human calcitonin receptor binding IC50 divided by human amylin receptor binding IC50
[3] = Table 7c, human calcitonin receptor binding IC50 divided by human amylin receptor binding IC50
[4] = human binding ratio, included for comparison
[5] = Table 6, human functional selectivity (hCTR EC50 / hAmylin-R EC50)

Row | Ratio hCT/hAmylin binding (human amylin receptor; [2]) | Ratio hCT/hAmylin binding (human amylin receptor; [3]) | Ratio hCT/hAmylin binding (human amylin receptor; [4]) | Ratio hCT/hAmylin funct. [1, 5] | Ratio hCT/hAmylin funct. ([1]; Table 6a, human functional selectivity (hCTR EC50 / hAmylin-R EC50), at least 5) | Ratio hCT/hAmylin funct. ([1]; Table 6i, hCTR funct. EC50 / hAmylin-R funct. EC50) | SMILES
1 |  |  | 1.0 | 0.9 |  |  | CC[C@H](C)[C@H](NC(=O)[C@H](C)NC(=O)CNC(=O)[C@H](Cc1ccccc1)NC(=O)[C@H](CC(N)=O)NC(=O)[C@@H]1CCCN1C(=O)[C@H](CO)NC(=O)[C@H](CO)NC(=O)[C@H](Cc1c[nH]cn1)NC(=O)[C@H](CCCNC(=N)N)NC(=O)[C@H](CC(C)C)NC(=O)[C@H](Cc1ccccc1)NC(=O)[C@H](CCC(=O)O)NC(=O)[C@H](C)NC(=O)[C@H](CC(C)C)NC(=O)[C@H](CCCNC(=N)N)NC(=O)[C@H](CCC(N)=O)NC(=O)[C@@H](NC(=O)[C@H](C)NC(=O)[C@@H]1CSSC[C@H](NC(=O)[C@H](CCCCN)NC(=O)CC[C@H](NC(=O)CCCCCCCCCCCCCCCCCCC(=O)O)C(=O)O)C(=O)N[C@@H](CC(N)=O)C(=O)N[C@@H]([C@@H](C)O)C(=O)N[C@@H](C)C(=O)N[C@@H]([C@@H](C)O)C(=O)N1)[C@@H](C)O)C(=O)N1CCC[C@H]1C(=O)N[C@@H](CO)C(=O)N[C@@H](CO)C(=O)N[C@H](C(=O)N[C@@H](CC(N)=O)C(=O)N[C@H](C(=O)NCC(=O)N[C@@H](CO)C(=O)N[C@@H](CC(=O)O)C(=O)N[C@H](C(=O)N1CCC[C@H]1C(N)=O)[C@@H](C)O)C(C)C)[C@@H](C)O [Example 11] ({C20 diacid-γGlu}-KCNTATCATQRLAEFLRHSSPNFGAIPSSTNVGSDTP-NH2; disulfide 2-7)
2 | 80.0 | 80.0 | 80.0 |  |  |  | CC[C@H](C)[C@H](NC(=O)[C@H](C)NC(=O)CNC(=O)[C@H](Cc1ccccc1)NC(=O)[C@H](CC(N)=O)NC(=O)[C@@H]1CCCN1C(=O)[C@H](CO)NC(=O)[C@H](CO)NC(=O)[C@H](Cc1c[nH]cn1)NC(=O)[C@H](CCCNC(=N)N)NC(=O)[C@H](CC(C)C)NC(=O)[C@H](Cc1ccccc1)NC(=O)[C@H](CC(N)=O)NC(=O)[C@H](C)NC(=O)[C@H](CC(C)C)NC(=O)[C@H](CCCNC(=N)N)NC(=O)[C@H](CCC(N)=O)NC(=O)[C@@H](NC(=O)[C@H](C)NC(=O)[C@@H]1CSSC[C@H](NC(=O)[C@@H](N)CCCCNC(=O)COCCOCCNC(=O)CC[C@H](NC(=O)CCCCCCCCCCCCCCCCCCC(=O)O)C(=O)O)C(=O)N[C@@H](CC(N)=O)C(=O)N[C@@H]([C@@H](C)O)C(=O)N[C@@H](C)C(=O)N[C@@H]([C@@H](C)O)C(=O)N1)[C@@H](C)O)C(=O)N1CCC[C@H]1C(=O)N[C@@H](CO)C(=O)N[C@@H](CO)C(=O)N[C@H](C(=O)N[C@@H](CC(N)=O)C(=O)N[C@H](C(=O)NCC(=O)N[C@@H](Cc1c[nH]cn1)C(=O)N[C@@H](CC(N)=O)C(=O)N[C@H](C(=O)N[C@@H](Cc1ccc(O)cc1)C(N)=O)[C@@H](C)O)C(C)C)[C@@H](C)O [Example 76] (H-K([AEEA-γGlu-C20 diacid])CNTATCATQRLANFLRHSSPNFGAIPSSTNVGHNTY-NH2; disulfide 2-7 (inferred); N-terminus and C-terminus assumed)

Continued, molecule first:

Row | SMILES | Ratio hCT/hAmylin binding (human amylin receptor; [2]) | Ratio hCT/hAmylin binding (human amylin receptor; [3]) | Ratio hCT/hAmylin binding (human amylin receptor; [4]) | Ratio hCT/hAmylin funct. [1, 5] | Ratio hCT/hAmylin funct. ([1]; Table 6a, human functional selectivity (hCTR EC50 / hAmylin-R EC50), at least 5) | Ratio hCT/hAmylin funct. ([1]; Table 6i, hCTR funct. EC50 / hAmylin-R funct. EC50)
3 | CC[C@H](C)[C@H](NC(=O)[C@@H]1CCCN1C(=O)CNC(=O)[C@H](Cc1ccccc1)NC(=O)[C@H](CC(N)=O)NC(=O)[C@@H]1CCCN1C(=O)[C@H](CO)NC(=O)[C@H](CO)NC(=O)[C@H](Cc1c[nH]cn1)NC(=O)[C@H](CCCNC(=N)N)NC(=O)[C@H](CC(C)C)NC(=O)[C@H](Cc1ccccc1)NC(=O)[C@H](CCC(=O)O)NC(=O)[C@H](C)NC(=O)[C@H](CC(C)C)NC(=O)[C@H](CCCNC(=N)N)NC(=O)[C@H](CCC(N)=O)NC(=O)[C@@H](NC(=O)[C@H](C)NC(=O)[C@@H]1CSSC[C@H](NC(=O)[C@H](CCCCN)NC(=O)CC[C@H](NC(=O)CCCCCCCCCCCCCCCCCCC(=O)O)C(=O)O)C(=O)N[C@@H](CC(N)=O)C(=O)N[C@@H]([C@@H](C)O)C(=O)N[C@@H](C)C(=O)N[C@@H]([C@@H](C)O)C(=O)N1)[C@@H](C)O)C(=O)N[C@@H](CC(C)C)C(=O)N1CCC[C@H]1C(=O)N1CCC[C@H]1C(=O)N[C@H](C(=O)N[C@@H](CC(N)=O)C(=O)N[C@H](C(=O)NCC(=O)N[C@@H](CO)C(=O)N[C@@H](CC(N)=O)C(=O)N[C@H](C(=O)N[C@@H](Cc1ccc(O)cc1)C(N)=O)[C@@H](C)O)C(C)C)[C@@H](C)O [Example 6] ({C20 diacid-γGlu}-KCNTATCATQRLAEFLRHSSPNFGPILPPTNVGSNTY-NH2; disulfide 2-7) | 20.0 | 20.0 | 20.0 | 5.7 | 5.7 | 5.7
4 | CC[C@H](C)[C@H](NC(=O)[C@H](C)NC(=O)CNC(=O)[C@H](Cc1ccccc1)NC(=O)[C@H](CC(N)=O)NC(=O)[C@@H]1CCCN1C(=O)[C@H](CO)NC(=O)[C@H](CO)NC(=O)[C@H](Cc1c[nH]cn1)NC(=O)[C@H](CCCNC(=N)N)NC(=O)[C@H](CC(C)C)NC(=O)[C@H](Cc1ccccc1)NC(=O)[C@H](CCC(=O)O)NC(=O)[C@H](C)NC(=O)[C@H](CC(C)C)NC(=O)[C@H](CCCNC(=N)N)NC(=O)[C@H](CCC(N)=O)NC(=O)[C@@H](NC(=O)[C@H](C)NC(=O)[C@@H]1CSSC[C@H](NC(=O)[C@H](CCCCN)NC(=O)CC[C@H](NC(=O)CCCCCCCCCCCCCCCCCCC(=O)O)C(=O)O)C(=O)N[C@@H](CC(N)=O)C(=O)N[C@@H]([C@@H](C)O)C(=O)N[C@@H](C)C(=O)N[C@@H]([C@@H](C)O)C(=O)N1)[C@@H](C)O)C(=O)N1CCC[C@H]1C(=O)N[C@@H](CO)C(=O)N[C@@H](CO)C(=O)N[C@H](C(=O)N[C@@H](CC(N)=O)C(=O)N[C@H](C(=O)NCC(=O)N[C@@H](CO)C(=O)N[C@@H](CC(N)=O)C(=O)N[C@H](C(=O)N1CCC[C@H]1C(N)=O)[C@@H](C)O)C(C)C)[C@@H](C)O [Example 8] ({C20 diacid-γGlu}-KCNTATCATQRLAEFLRHSSPNFGAIPSSTNVGSNTP-NH2; disulfide 2-7) |  |  | 0.5 | 1.1 |  | 
5 | CC[C@H](C)[C@H](NC(=O)[C@H](C)NC(=O)CNC(=O)[C@H](Cc1ccccc1)NC(=O)[C@H](CC(N)=O)NC(=O)[C@@H]1CCCN1C(=O)[C@H](CO)NC(=O)[C@H](CO)NC(=O)[C@H](Cc1c[nH]cn1)NC(=O)[C@H](CCCNC(=N)N)NC(=O)[C@H](CC(C)C)NC(=O)[C@H](Cc1ccccc1)NC(=O)[C@H](CC(=O)O)NC(=O)[C@H](C)NC(=O)[C@H](CC(C)C)NC(=O)[C@H](CCCNC(=N)N)NC(=O)[C@H](CCC(N)=O)NC(=O)[C@@H](NC(=O)[C@H](C)NC(=O)[C@@H]1CSSC[C@H](NC(=O)[C@H](CCCCN)NC(=O)CC[C@H](NC(=O)CCCCCCCCCCCCCCCCCCC(=O)O)C(=O)O)C(=O)N[C@@H](CC(N)=O)C(=O)N[C@@H]([C@@H](C)O)C(=O)N[C@@H](C)C(=O)N[C@@H]([C@@H](C)O)C(=O)N1)[C@@H](C)O)C(=O)N1CCC[C@H]1C(=O)N[C@@H](CO)C(=O)N[C@@H](CO)C(=O)N[C@H](C(=O)N[C@@H](CC(N)=O)C(=O)N[C@H](C(=O)NCC(=O)N[C@@H](CO)C(=O)N[C@@H](CC(N)=O)C(=O)N[C@H](C(=O)N1CCC[C@H]1C(N)=O)[C@@H](C)O)C(C)C)[C@@H](C)O [Example 10] ({C20 diacid-γGlu}-KCNTATCATQRLADFLRHSSPNFGAIPSSTNVGSNTP-NH2; disulfide 2-7) |  |  | 1.2 | 1.0 |  | 
